Source: publication PMC9730523 (Frontiers in Immunology, 2022)

Legend:
mMC5 [1] = molecular target: T1, mMC5 (Mus musculus, UniProt P41149); test: cAMP accumulation assay, transfected HEK293A; design: dose or concentration left out as unconfirmed; details: HEK293-A, 0.25 h, read-out: Top
mMC1 [2] = molecular target: T2, mMC1 (Mus musculus, UniProt Q01727); test: ERK1/2 phosphorylation assay, transfected HEK293A; format: cell-based; design: host or cells: HEK293A; details: HEK293-A, 5 min; p-ERK1/2, mMC1; normalised maximal efficacy at 2μM, percentage of maximal αMSH response; read-out: Top
hMC4 [3] = molecular target: T3, hMC4 (Homo sapiens, UniProt P32245); test: ERK1/2 phosphorylation assay, transfected HEK293A; format: cell-based; details: HEK293-A, 5 min; p-ERK1/2, hMC4; normalised maximal efficacy at 2μM, percentage of maximal αMSH response; read-out: Top
T3 construct: host or cells: HEK293A

mMC4 [4] = molecular target: T4, mMC4 (Mus musculus, UniProt P56450); test: cAMP accumulation assay, transfected HEK293A; format: cell-based; details: HEK293-A, 0.25 h, normalised maximal efficacy at 2μM, percentage of maximal αMSH response, read-out: Top
T4 construct: host or cells: HEK293A

hMC5 [5] = molecular target: T5, hMC5 (Homo sapiens, UniProt P33032); test: cAMP accumulation assay, transfected HEK293A; design: dose or concentration left out as unconfirmed; details: HEK293-A, 0.25 h, read-out: Top
mMC5 [6] = molecular target: T1, mMC5; test: ERK1/2 phosphorylation assay, transfected HEK293A; format: cell-based; design: host or cells: HEK293A; details: HEK293-A, 5 min; p-ERK1/2, mMC5; normalised maximal efficacy at 2μM, percentage of maximal αMSH response; read-out: Top
hMC1 [7] = molecular target: T6, hMC1 (Homo sapiens, UniProt Q01726); test: ERK1/2 phosphorylation assay, transfected HEK293A; format: cell-based; design: host or cells: HEK293A; details: 5 min; p-ERK1/2, hMC1; normalised maximal efficacy at 2μM, percentage of maximal αMSH response; read-out: Top
hMC3 [8] = molecular target: T7, hMC3 (Homo sapiens, UniProt P41968); test: ERK1/2 phosphorylation assay, transfected HEK293A; format: cell-based; design: host or cells: HEK293A; details: 5 min; p-ERK1/2, hMC3; normalised maximal efficacy at 2μM, percentage of maximal αMSH response; read-out: Top
[9] = humans, single subcutaneous administration; cited from earlier work
mMC1 [10] = molecular target: T2, mMC1; test: cAMP accumulation assay, transfected HEK293A; design: dose or concentration left out as unconfirmed; details: HEK293-A, 0.25 h, read-out: Top
hMC3 [11] = molecular target: T7, hMC3; test: cAMP accumulation assay, transfected HEK293A; design: dose or concentration left out as unconfirmed; details: HMC3, 0.25 h, read-out: Top
hMC1 [12] = molecular target: T6, hMC1; test: cAMP accumulation assay, transfected HEK293A; design: dose or concentration left out as unconfirmed; details: HMC1, 0.25 h, read-out: Top
mMC4 [13] = molecular target: T4, mMC4; test: ERK1/2 phosphorylation assay, transfected HEK293A; format: cell-based; details: HEK293-A, 5 min; p-ERK1/2, mMC4; normalised maximal efficacy at 2μM, percentage of maximal αMSH response; read-out: Top
hMC4 [14] = molecular target: T3, hMC4; test: cAMP accumulation assay, transfected HEK293A; format: cell-based; details: HEK293-A, 0.25 h, normalised maximal efficacy at 2μM, percentage of maximal αMSH response, read-out: Top
hMC5 [15] = molecular target: T5, hMC5; test: ERK1/2 phosphorylation assay, transfected HEK293A; format: cell-based; design: host or cells: HEK293A; details: HEK293-A, 5 min; p-ERK1/2, hMC5; normalised maximal efficacy at 2μM, percentage of maximal αMSH response; read-out: Top

T1 sequence (P41149 whole entry): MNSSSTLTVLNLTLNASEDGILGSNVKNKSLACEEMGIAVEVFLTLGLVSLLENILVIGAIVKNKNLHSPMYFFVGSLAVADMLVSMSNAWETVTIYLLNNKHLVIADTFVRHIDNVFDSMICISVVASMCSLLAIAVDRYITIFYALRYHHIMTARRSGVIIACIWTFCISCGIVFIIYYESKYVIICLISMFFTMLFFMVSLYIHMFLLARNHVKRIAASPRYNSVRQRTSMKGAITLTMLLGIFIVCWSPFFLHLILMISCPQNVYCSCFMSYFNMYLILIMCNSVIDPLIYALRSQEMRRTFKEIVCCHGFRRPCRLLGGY
T7 sequence (P41968 whole entry): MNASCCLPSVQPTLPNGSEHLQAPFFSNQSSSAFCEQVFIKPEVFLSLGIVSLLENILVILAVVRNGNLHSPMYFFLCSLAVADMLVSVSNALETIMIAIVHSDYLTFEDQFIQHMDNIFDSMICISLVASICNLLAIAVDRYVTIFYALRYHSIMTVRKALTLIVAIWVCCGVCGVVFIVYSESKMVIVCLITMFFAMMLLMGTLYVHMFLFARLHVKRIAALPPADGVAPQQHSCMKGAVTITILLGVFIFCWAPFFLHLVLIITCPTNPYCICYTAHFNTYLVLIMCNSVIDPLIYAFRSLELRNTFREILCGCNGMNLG
T3 sequence (P32245 whole entry): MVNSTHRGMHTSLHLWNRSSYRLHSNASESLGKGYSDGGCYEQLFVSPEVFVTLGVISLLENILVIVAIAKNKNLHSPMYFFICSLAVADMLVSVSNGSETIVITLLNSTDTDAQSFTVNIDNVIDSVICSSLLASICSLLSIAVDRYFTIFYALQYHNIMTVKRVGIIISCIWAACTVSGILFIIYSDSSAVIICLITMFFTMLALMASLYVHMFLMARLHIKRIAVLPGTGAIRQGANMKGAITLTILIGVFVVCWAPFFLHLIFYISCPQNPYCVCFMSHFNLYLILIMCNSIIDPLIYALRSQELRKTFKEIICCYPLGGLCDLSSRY
T6 sequence (Q01726 whole entry): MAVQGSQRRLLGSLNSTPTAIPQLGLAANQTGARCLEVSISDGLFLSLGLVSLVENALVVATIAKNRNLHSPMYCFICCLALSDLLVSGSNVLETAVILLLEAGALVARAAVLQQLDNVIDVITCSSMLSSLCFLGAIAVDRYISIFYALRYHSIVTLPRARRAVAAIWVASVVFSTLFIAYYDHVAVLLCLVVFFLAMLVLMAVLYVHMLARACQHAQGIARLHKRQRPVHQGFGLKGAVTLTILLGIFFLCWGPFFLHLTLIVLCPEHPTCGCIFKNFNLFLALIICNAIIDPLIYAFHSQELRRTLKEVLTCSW
T4 sequence (P56450 whole entry): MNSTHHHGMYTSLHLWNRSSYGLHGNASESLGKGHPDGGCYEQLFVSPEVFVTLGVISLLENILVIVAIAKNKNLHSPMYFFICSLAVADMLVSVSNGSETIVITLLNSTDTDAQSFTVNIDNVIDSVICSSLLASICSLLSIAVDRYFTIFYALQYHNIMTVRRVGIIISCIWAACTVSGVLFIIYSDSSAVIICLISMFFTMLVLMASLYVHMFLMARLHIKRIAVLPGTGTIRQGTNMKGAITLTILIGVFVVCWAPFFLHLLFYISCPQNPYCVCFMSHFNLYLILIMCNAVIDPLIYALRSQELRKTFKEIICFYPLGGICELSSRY
T2 sequence (Q01727 whole entry): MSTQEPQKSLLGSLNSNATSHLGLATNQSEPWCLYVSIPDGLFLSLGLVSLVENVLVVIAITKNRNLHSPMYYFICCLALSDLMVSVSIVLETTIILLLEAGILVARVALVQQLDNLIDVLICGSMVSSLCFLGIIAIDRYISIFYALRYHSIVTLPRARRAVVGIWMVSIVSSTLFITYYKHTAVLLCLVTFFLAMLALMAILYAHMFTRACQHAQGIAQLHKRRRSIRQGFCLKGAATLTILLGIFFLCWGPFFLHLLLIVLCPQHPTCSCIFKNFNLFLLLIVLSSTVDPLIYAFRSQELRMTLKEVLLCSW
T5 sequence (P33032 whole entry): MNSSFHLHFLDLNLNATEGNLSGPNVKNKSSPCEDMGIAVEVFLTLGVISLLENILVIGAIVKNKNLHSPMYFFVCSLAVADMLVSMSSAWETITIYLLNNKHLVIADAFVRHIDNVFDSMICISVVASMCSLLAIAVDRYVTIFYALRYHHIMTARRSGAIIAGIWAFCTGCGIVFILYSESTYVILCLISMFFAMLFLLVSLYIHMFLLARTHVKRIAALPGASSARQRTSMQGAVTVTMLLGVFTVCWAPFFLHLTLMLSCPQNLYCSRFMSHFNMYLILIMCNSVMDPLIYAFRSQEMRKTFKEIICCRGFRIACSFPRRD

Emax (mMC5 [1]): 14.8%
Emax (mMC1 [2]): 99.7%
Emax (hMC4 [3]): 56.1%
Emax at 2 µM (mMC4 [4]): 75.1%
Emax (hMC5 [5]): 38.2%
Emax (mMC5 [6]): 18.6%
Emax (hMC1 [7]): 136%
Emax (hMC3 [8]): 70.1%
Emax (mMC1 [10]): 103%
Emax (hMC3 [11]): 10.9%
Emax (hMC1 [12]): 112%
Emax (mMC4 [13]): 80.7%
Emax at 2 µM (hMC4 [14]): 26.5%
Emax (hMC5 [15]): 62.7%
Compound: CCCC[C@H](NC(C)=O)C(=O)N[C@H]1CCC(=O)NC[C@@H](C(=O)N[C@@H](Cc2c[nH]c3ccccc23)C(N)=O)NC(=O)[C@H](CCCNC(=N)N)NC(=O)[C@@H](Cc2ccccc2)NC(=O)[C@H](Cc2c[nH]cn2)NC1=O [PL8177, Ac-Nle^1-cyclo(Glu^2-L-His^3-D-Phe^4-Arg^5-Dap^6)-Trp^7-NH2]
persisting plasma levels after administration [9]: 48 h
